Structures can show the parent of a compound that is named as a salt.

By EC50 is commonly meant the concentration at which the effect is half-maximal.

One assay concerns Molm13 cells. Put plainly: Cell Glo Viability Assay (Luminescence), Molm13. Particulars: Homo sapiens, MOLM-13, 120 h, 5 days, CellTiter-Glo, read-out: Cellular EC50 (μM) Molm13. It is filed as cell-based. The method, then: (§1) Molm13 cells, a human acute monocytic leukemia cell line, and MV4-11 cells, a human leukemia cell line known to express mutated FLT3 cells (both from ATCC) were seeded separately at 2000 cells per well in 90 μL of RPMI1640 medium supplemented with 10% FBS in 96-well black-walled plates (BD Falcon). Test compounds were diluted at ten times of assay concentrations, 10 μL was added into duplicate wells. Plates were incubated at 37° C. with 5% CO2 for 5 days. Cell viability was assayed by CellTiter-Glo® Luminescent Cell Viability Assay (Promega) following manufacturer's protocol.
(§2) The results of this assay, given as EC50 values, indicate the concentration of test compound that inhibits tumor cell proliferation by 50%.

For a further assay, the system named is MV4-11 cells. The assay is described as follows: Cell Glo Viability Assay (Luminescence), MV4-11. To be noted: Homo sapiens, 120 h; MV4-11 cells (mutated FLT3), 5 days, CellTiter-Glo; read-out: Cellular EC50 (μM) MV4-11. The format is cell-based. As for the experimental part:
as §1, §2
For orientation: Cellular ATP, detected with luciferase, serves as a proxy for viable cell number.

With `Clc1ccccc1CNc1nccc(-c2cnc3c(NCCN4CCOCC4)nccn23)n1` [Example 88, {3-[2-(2-Chloro-benzylamino)-pyrimidin-4-yl]-imidazo[1,2-a]pyrazin-8-yl}-(2-morpholin-4-yl-ethyl)-amine; hydrochloride], the values for the EC50 in the assay with Molm13 cells and in the assay on MV4-11 cells were 0.037 µM and 0.055 µM, respectively.
Take `CC(C)Nc1nccc(-c2cnc3c(NCCO)nccn23)n1` [Example 30, 2-[3-(2-Isopropylamino-pyrimidin-4-yl)-imidazo[1,2-a]pyrazin-8-ylamino]-ethanol]: the EC50 with Molm13 cells stood at 2.19 µM; in the assay on MV4-11 cells, 0.745 µM.
Turning to `CNc1nccc(-c2cnc3c(NC4CCNCC4)nccn23)n1` [Example 26, [3-(2-Methylamino-pyrimidin-4-yl)-imidazo[1,2-a]pyrazin-8-yl]-piperidin-4-yl-amine], the EC50 in the assay on Molm13 cells amounted to 2.56 µM; with MV4-11 cells, 1.12 µM.
In the case of `NCCC(Nc1cccc(-c2cnc3c(N[C@H]4CC[C@H](N)CC4)nccn23)n1)c1ccccc1` (stereo partly drawn) [Example 81, N-{3-[6-(3-Amino-1-phenyl-propylamino)-pyridin-2-yl]-imidazo[1,2-a]pyrazin-8-yl}-cyclohexane-1,4-diamine; hydrochloride], the results for the EC50 in the assay with Molm13 cells and in the assay with MV4-11 cells were 0.255 µM and 0.288 µM, respectively.
Taken in the same sequence, the figures for `CN1CCN(c2nccn3c(-c4ccnc(NC(CN)c5cccc(Cl)c5)n4)cnc23)CC1` (stereo not drawn) [Example 79, 1-(3-Chloro-phenyl)-N1-{4-[8-(4-methyl-piperazin-1-yl)-imidazo[1,2-a]pyrazin-3-yl]-pyrimidin-2-yl}-ethane-1,2-diamine; hydrochloride] were 1.97 µM and 1.01 µM.
`N[C@H]1CC[C@H](Nc2nccn3c(-c4cccc(NCc5cccc(Cl)c5)n4)cnc23)CC1` [Example 82, N-{3-[6-(3-Chloro-benzylamino)-pyridin-2-yl]-imidazo[1,2-a]pyrazin-8-yl}-cyclohexane-1,4-diamine; hydrochloride]: the EC50 in the assay on Molm13 cells was 0.119 µM; in the assay on MV4-11 cells, 0.049 µM.
In the case of `N[C@H]1CC[C@H](Nc2nccn3c(-c4cccc(NCc5ccccc5)n4)cnc23)CC1` [Example 73, N-[3-(6-Benzylamino-pyridin-2-yl)-imidazo[1,2-a]pyrazin-8-yl]-cyclohexane-1,4-diamine; hydrochloride], the EC50 worked out at 0.077 µM in the assay on Molm13 cells and 0.04 µM in the assay on MV4-11 cells.
Take `N[C@H]1CC[C@H](Nc2nccn3c(-c4cccc(NCc5ccc(Cl)cc5)n4)cnc23)CC1` [Example 86, N-{3-[6-(4-Chloro-benzylamino)-pyridin-2-yl]-imidazo[1,2-a]pyrazin-8-yl}-cyclohexane-1,4-diamine; hydrochloride]: the EC50 with Molm13 cells turned out to be 0.353 µM; in the assay with MV4-11 cells, 0.385 µM.
With `c1ccc(CNc2nccc(-c3cnc4c(NCCN5CCOCC5)nccn34)n2)cc1` [Example 72, [3-(2-Benzylamino-pyrimidin-4-yl)-imidazo[1,2-a]pyrazin-8-yl]-(2-morpholin-4-yl-ethyl)-amine; hydrochloride], the EC50 with Molm13 cells amounted to 0.171 µM; in the assay with MV4-11 cells it was 0.124 µM.
In the case of `CN1CCN(c2nccn3c(-c4ccnc(NC(CN)c5ccsc5)n4)cnc23)CC1` (stereo not drawn) [Example 75, N1-{4-[8-(4-Methyl-piperazin-1-yl)-imidazo[1,2-a]pyrazin-3-yl]-pyrimidin-2-yl}-1-thiophen-3-yl-ethane-1,2-diamine; hydrochloride], the figures for the EC50 in the assay with Molm13 cells and with MV4-11 cells were 1.69 µM and 0.878 µM, respectively.
For the compound `N[C@H]1CC[C@H](Nc2nccn3c(-c4cccc(NCc5cccs5)n4)cnc23)CC1` [Example 87, N-(3-{6-[(Thiophen-2-ylmethyl)-amino]-pyridin-2-yl}-imidazo[1,2-a]pyrazin-8-yl)-cyclohexane-1,4-diamine; hydrochloride], the EC50 with Molm13 cells was 0.074 µM; in the assay with MV4-11 cells it was 0.07 µM.
In the same order, the values of `Clc1cccc(CNc2nccc(-c3cnc4c(NCCN5CCOCC5)nccn34)n2)c1` [Example 89, {3-[2-(3-Chloro-benzylamino)-pyrimidin-4-yl]-imidazo[1,2-a]pyrazin-8-yl}-(2-morpholin-4-yl-ethyl)-amine; hydrochloride] are 0.075 µM and 0.06 µM.

The record behind these values is patent US8673905B2, “Imidazo pyrazines” (Hoffmann-La Roche Inc., priority 2011, dated 2014).
